Where two headings read alike, the source gives them in different places.
Target: T1, recombinant human GST-SYK (Homo sapiens, UniProt P43405)
T1 construct: purchased Carna Biosciences 08-176
Experiment: Homogeneous Time-Resolved Fluorescence (HTRF) assay for the recombinant human Syk enzyme
Format: biochemical
Outline: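 Phosphorylation of a biotinylated Syk substrate peptide (250 nM) was run for 45 min at room temperature with 25 μM ATP and 5 mM Mg. It followed a 10-min preincubation of GST-hSYK ([…]) with compound in 15 mM Tris-HCl pH 7.5, 2 mM DTT. Product was detected by time-resolved fluorescence using a europium anti-phosphotyrosine antibody plus SA-APC in EDTA-containing quench buffer.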

[1] = HTRF assay, recombinant human GST-SYK, IC50 given as class symbols, read-out: rhSYK Activity

IC50 [1]	IC50 (recombinant GST-hSYK, 25 μM ATP, HTRF, read-out: IC50 (inhibition of human Syk activity))	Structure (SMILES)
< 100 nM		Cc1cc(Nc2nccc(C(F)(F)F)n2)cc(-c2ccc(NC[C@H]3CC[C@H](C(=O)O)CC3)nc2)c1 [Example 7.144, trans-4-({[5-(3-methyl-5-{[4-(trifluoromethyl)pyrimidin-2-yl]amino}phenyl)pyridin-2-yl]amino}methyl)cyclohexanecarboxylic acid]
< 100 nM		Cc1cc(Nc2nccc(C(F)(F)F)n2)cc(-c2ccc(N3CC(C4CCC(C(=O)O)CC4)C3)nc2)c1 (centres unmarked) [Example 7.145, 4-{1-[5-(3-methyl-5-{[4-(trifluoromethyl)pyrimidin-2-yl]amino}phenyl)pyridin-2-yl]azetidin-3-yl}cyclohexanecarboxylic acid]
< 100 nM		Cc1cc(Nc2nccc(C(F)(F)F)n2)cc(-c2ccc(N3CC(C4CCCC(C(=O)O)C4)C3)nc2)c1 (centres unmarked) [Example 7.146, 3-{1-[5-(3-methyl-5-{[4-(trifluoromethyl)pyrimidin-2-yl]amino}phenyl)pyridin-2-yl]azetidin-3-yl}cyclohexanecarboxylic acid]
< 100 nM		Cc1cc(Nc2nccc(C(F)(F)F)n2)cc(-c2ccc(N3CCC([C@@H]4CCCC[C@H]4C(=O)O)CC3)nc2)c1 [Example 7.147, (1R,2S)-2-{1-[5-(3-methyl-5-{[4-(trifluoromethyl)pyrimidin-2-yl]amino}phenyl)pyridin-2-yl]piperidin-4-yl}cyclohexanecarboxylic acid]
< 100 nM		Cc1cc(Nc2nccc(C(F)(F)F)n2)cc(-c2ccc(NCC3CCC(C(=O)O)CC3)nc2)c1 (centres unmarked) [Example 7.148, 4-({[5-(3-methyl-5-{[4-(trifluoromethyl)pyrimidin-2-yl]amino}phenyl)pyridin-2-yl]amino}methyl)cyclohexanecarboxylic acid]
< 100 nM		Cc1cc(Nc2nccc(C(F)(F)F)n2)cc(-c2ccc(N3CCC[C@@H](C(=O)N4CCC[C@@H](C(=O)O)C4)C3)nc2)c1 [Example 7.149, (3R)-1-({(3R)-1-[5-(3-methyl-5-{[4-(trifluoromethyl)pyrimidin-2-yl]amino}phenyl)pyridin-2-yl]piperidin-3-yl}carbonyl)piperidine-3-carboxylic acid]
< 100 nM		Cc1cc(Nc2nccc(C(F)(F)F)n2)cc(-c2ccc(N3CCC[C@@H](C(=O)N4CCC[C@H](C(=O)O)C4)C3)nc2)c1 [Example 7.150, (3S)-1-({(3R)-1-[5-(3-methyl-5-{[4-(trifluoromethyl)pyrimidin-2-yl]amino}phenyl)pyridin-2-yl]piperidin-3-yl}carbonyl)piperidine-3-carboxylic acid]
< 100 nM		Cc1cc(Nc2nccc(C(F)(F)F)n2)cc(-c2ccc(N3CCC(N4CC(C(=O)O)CC4=O)CC3)nc2)c1 (centres unmarked) [Example 7.151, 1-{1-[5-(3-methyl-5-{[4-(trifluoromethyl)pyrimidin-2-yl]amino}phenyl)pyridin-2-yl]piperidin-4-yl}-5-oxopyrrolidine-3-carboxylic acid]
< 100 nM		Cc1cc(Nc2ncc(Br)c(C(F)(F)F)n2)cc(-c2ccc(NC(C)(C)C(=O)O)nc2)c1 [Example 7.152]
< 100 nM		Cc1cc(Nc2nccc(C(F)(F)F)n2)cc(-c2ccc(N(C)CC(N)=O)nc2)c1 [Example 7.153, N~2~-methyl-N~2~-[5-(3-methyl-5-{[4-(trifluoromethyl)pyrimidin-2-yl]amino}phenyl)pyridin-2-yl]glycinamide]
< 100 nM		Cc1cc(Nc2nccc(C(F)(F)F)n2)cc(-c2ccc(N[C@H](C)C(=O)O)nc2)c1 [Example 7.154, N-[5-(3-methyl-5-{[4-(trifluoromethyl)pyrimidin-2-yl]amino}phenyl)pyridin-2-yl]-D-alanine]
< 100 nM		Cc1cc(Nc2nccc(C(F)(F)F)n2)cc(-c2ccc(N[C@@H](Cc3ccccc3)C(=O)O)nc2)c1 [Example 7.155, N-[5-(3-methyl-5-{[4-(trifluoromethyl)pyrimidin-2-yl]amino}phenyl)pyridin-2-yl]-L-phenylalanine]
< 100 nM		Cc1cc(Nc2nccc(C(F)(F)F)n2)cc(-c2ccc(NC3CCNC3=O)nc2)c1 (centres unmarked) [Example 7.157, 3-{[5-(3-methyl-5-{[4-(trifluoromethyl)pyrimidin-2-yl]amino}phenyl)pyridin-2-yl]amino}pyrrolidin-2-one]
< 100 nM		Cc1cc(Nc2ncc(F)c(C3CC3)n2)cc(-c2ccc(NC3CCNC3=O)nc2)c1 (centres unmarked) [Example 7.158, 3-[(5-{3-[(4-cyclopropyl-5-fluoropyrimidin-2-yl)amino]-5-methylphenyl}pyridin-2-yl)amino]pyrrolidin-2-one]
< 100 nM		Cc1cc(Nc2ncc(F)c(C3CC3)n2)cc(-c2ccc(NC(C)(C)C(=O)O)nc2)c1 [Example 7.159, N-(5-{3-[(4-cyclopropyl-5-fluoropyrimidin-2-yl)amino]-5-methylphenyl}pyridin-2-yl)-2-methylalanine]
< 100 nM		O=C(O)[C@@H]1CCN1c1ccc(-c2cc(F)cc(Nc3ncc(F)c(C4CC4)n3)c2)cn1 [Example 7.160, (2S)-1-(5-{3-[(4-cyclopropyl-5-fluoropyrimidin-2-yl)amino]-5-fluorophenyl}pyridin-2-yl)azetidine-2-carboxylic acid]

IC50 [1]	IC50 (recombinant GST-hSYK, 25 μM ATP, HTRF, read-out: IC50 (inhibition of human Syk activity))	Structure (SMILES)
< 100 nM		Cc1cc(Nc2ncc(F)c(C3CC3)n2)cc(-c2ccc(N3CC[C@H]3C(=O)O)nc2)c1 [Example 7.161, (2S)-1-(5-{3-[(4-cyclopropyl-5-fluoropyrimidin-2-yl)amino]-5-methylphenyl}pyridin-2-yl)azetidine-2-carboxylic acid]
< 100 nM		COC(=O)CS(=O)(=O)Nc1ccc(-c2cc(C)cc(Nc3nccc(C(F)(F)F)n3)c2)cn1 [Example 8.1, Methyl {[5-(3-methyl-5-{[4-(trifluoromethyl)pyrimidin-2-yl]amino}phenyl)pyridin-2-yl]sulfamoyl}acetate]
< 100 nM		Cc1cc(Nc2nccc(C(F)(F)F)n2)cc(-c2ccc(NS(=O)(=O)CC(=O)O)nc2)c1 [Example 8.2, {[5-(3-Methyl-5-{[4-(trifluoromethyl)pyrimidin-2-yl]amino}phenyl)pyridin-2-yl]sulfamoyl}acetic acid]
< 100 nM		COC(=O)CC(=O)Nc1ccc(-c2cc(C)cc(Nc3nccc(C(F)(F)F)n3)c2)cn1 [Example 8.3, methyl 3-{[5-(3-methyl-5-{[4-(trifluoromethyl)pyrimidin-2-yl]amino}phenyl)pyridin-2-yl]amino}-3-oxopropanoate]
< 100 nM		Cc1cc(Nc2nccc(C(F)(F)F)n2)cc(-c2ccc(NC(=O)CC(=O)O)nc2)c1 [Example 8.4, 3-{[5-(3-methyl-5-{[4-(trifluoromethyl)pyrimidin-2-yl]amino}phenyl)pyridin-2-yl]amino}-3-oxopropanoic acid]
< 100 nM	17.9 nM	Cc1cc(Nc2nccc(C(F)(F)F)n2)cc(-c2ccc(C(C)(O)CO)nc2)c1 (centres unmarked) [Example 9.1, 2-[5-(3-Methyl-5-{[4-(trifluoromethyl)pyrimidin-2-yl]amino}phenyl)pyridin-2-yl]propane-1,2-diol]
< 100 nM		Cc1cc(Nc2nccc(C(F)(F)F)n2)cc(-c2ccnc(C3(O)CCC(=O)CC3)c2)c1 [Example 9.2, 4-Hydroxy-4-[4-(3-methyl-5-{[4-(trifluoromethyl)pyrimidin-2-yl]amino}phenyl)pyridin-2-yl]cyclohexanone]
< 100 nM		Cc1cc(Nc2nccc(C(F)(F)F)n2)cc(-c2ccnc([C@]3(O)CC[C@@H](O)CC3)c2)c1 [Example 9.3, Cis-1-[4-(3-methyl-5-{[4-(trifluoromethyl)pyrimidin-2-yl]amino}phenyl)pyridine-2-yl]cyclohexane-1,4-diol]
< 100 nM		Cc1cc(Nc2nccc(C(F)(F)F)n2)cc(-c2cncc(C3(O)CCC(C(=O)O)C3)c2)c1 (centres unmarked) [Example 9.5, 3-Hydroxy-3-[5-(3-methyl-5-{[4-(trifluoromethyl)pyrimidin-2-yl]amino}phenyl)pyridin-3-yl]cyclopentanecarboxylic acid]
< 100 nM		Cc1cc(Nc2nccc(C3CC3)n2)cc(-c2ccc(C(C)(O)[C@H]3CC[C@H](C(=O)O)CC3)nc2)c1 (stereo partly drawn) [Example 9.6, trans-4-(1-(5-(3-(4-cyclopropylpyrimidin-2-ylamino)-5-methylphenyl)pyridin-2-yl)-1-hydroxyethyl)cyclohexanecarboxylic acid]
< 100 nM		Cc1cc(Nc2nccc(C(F)(F)F)n2)cc(-c2cncc(C3(O)CCNCC3)c2)c1 [Example 9.7, 4-[5-(3-Methyl-5-{[4-(trifluoromethyl)pyrimidin-2-yl]amino}phenyl)pyridin-3-yl]piperidin-4-ol]
< 100 nM		Cc1cc(Nc2nccc(C(F)(F)F)n2)cc(-c2ccc([C@]3(O)CC[C@@](C)(C(=O)O)CC3)nc2)c1 [Example 9.11, cis-4-hydroxy-1-methyl-4-[5-(3-methyl-5-{[4-(trifluoromethyl)pyrimidin-2-yl]amino}phenyl)pyridin-2-yl]cyclohexanecarboxylic acid]
< 100 nM		CC1(C(=O)O)CCC(O)(c2ccc(-c3cc(Nc4nccc(C(F)(F)F)n4)cc(C(F)F)c3)cn2)CC1 (stereo not drawn) [Example 9.12, cis-4-{5-[3-(difluoromethyl)-5-{[4-(trifluoromethyl)pyrimidin-2-yl]amino}phenyl]pyridin-2-yl}-4-hydroxy-1-methylcyclohexanecarboxylic acid]
< 100 nM		Cc1cc(Nc2nccc(C(F)(F)F)n2)cc(-c2ccc(C(C)(O)c3ccc(C(=O)O)cc3)nc2)c1 (centres unmarked) [Example 9.20, 4-{1-hydroxy-1-[5-(3-methyl-5-{[4-(trifluoromethyl)pyrimidin-2-yl]amino}phenyl)pyridin-2-yl]ethyl}benzoic acid]
< 100 nM		Cc1cc(Nc2nccc(C(F)(F)F)n2)cc(-c2ccc(C3(O)CCCC(C(=O)O)C3)nc2)c1 (centres unmarked) [Example 9.21, 3-hydroxy-3-[5-(3-methyl-5-{[4-(trifluoromethyl)pyrimidin-2-yl]amino}phenyl)pyridin-2-yl]cyclohexanecarboxylic acid]

Source: patent US9376418B2, “Substituted pyridine spleen tyrosine kinase (SYK) inhibitors” (Merck Sharp & Dohme Corp., priority 2012, dated 2016)
